Measured values taken from patent US20220401329A1, “ARTIFICIAL MELANIN NANOPARTICLES AND PRECURSOR MOLECULES AS HAIR DYES” (Northwestern University, priority 2019, published 2022).
Marks after values point to notes of the source that are not given here.

What was measured:
[1] = tested on: Agaricus bisporus tyrosinase (EC 1.14.18.1); test: Monomer consumption in tyrosinase-mediated oxidation, by RP-HPLC; format: biochemical; details: 84 nM tyrosinase; for monomer consumption (%) after 2 h reaction: 0.5 mg/mL monomer in water
Description: The use of chemoenzymatic oxidative polymerization to produce multifunctional hair coatings has two main advantages. First, it is performed at neutral pH, avoiding the need for basic additives such as NH4OH. Second, it allows the use of substrates other than DA, such as phenolamines and amino acids. Mushroom tyrosinase has recently been used to promote polydopamine-based film deposition^40 and nanoparticles formation^41 starting from dopamine as well as natural phenolamines. […] As previously reported,^40 a 6 h reaction time was necessary to obtain effective darkening of the reaction solutions, performed either in water or Dulbecco's phosphate-buffered saline (DPBS) buffer (FIGS. 23A and 29). Across all tested monomers (L-Tyr, TA, DA), color darkening was associated with an initial increase, then decrease in UV-Vis absorption at 310 nm and 475 nm (FIGS. 23B and 30A-30D). A decrease in these signals, deriving from quinone and cyclic amine species respectively,^40 after the 6 h reaction is indicative of successful polymerization and deposition.^40 We next performed these reactions at 35° C. and at neutral pH, optimal reaction parameters for mushroom tyrosinase.^42 This led to a faster process with solutions turning brown/black several minutes after reaction initiation (FIG. 23A). […] This was confirmed by the rapid disappearance of the peak at 310 nm and 480 nm, as monitored by UV-Vis (FIGS. 23B and 30A-30D). […] (FIGS. 23C and 31A-31B and Table 2). At five-fold higher concentration of 420 nM (50 U/mL) we observed almost complete monomer consumption (FIG. 23D). Monitoring Monomer Consumption via RP-HPLC studies. Monomer consumption after a 2 h reaction was determined by RP-HPLC. Reactions were performed either at rt or at 35° C. and using either 84 nM or […] (five fold) tyrosinase.

[2] = Solubility of monomers in water; format: physicochemical

Row | SMILES | monomer consumption (%) after 2 h reaction ([1]; 35° C.) | monomer consumption (%) after 2 h reaction ([1]; rt) | substrate for mushroom tyrosinase ([1]; 0.5 mg/mL, 2 hours at 35° C. (FIG. 33A)) | solubility [2]
1 | NCCc1ccc(O)c(O)c1 [DA, dopamine] | 91% | 65% |  | 
2 | N[C@@H](Cc1ccc(O)cc1)C(=O)O [L-Tyr, L-tyrosine] | 86% | 55%* |  | 
3 | COC(=O)[C@@H](N)Cc1ccc(O)cc1 [L-Tyr-OMe, L-tyrosine methyl ester] |  |  | good substrate | ≥ 26 mM
4 | NCCc1ccc(O)cc1 [TA, tyramine] | 86% | 76% |  | 
